# According to patent US9273115B2, “Method for controlling the biological activity of a protein in a vertebrate cell” (CENTRE NATIONAL DE LA RECHERCHE SCIENTIFIQUE (CNRS), priority 2009, dated 2016):
# Positions count from the first letter of the chain named.
# Experiments:
# Cre-ERM^Db [1] = target: T1, Cre-ERM^Db (Homo sapiens, UniProt P03372, A350M/G400V/G521S/L346I/M388Q/Y526D); assay: X-Gal staining of skin sections of K14-Cre-ERM^Db/RosaR26R mice (Cre-mediated recombination in keratinocytes); conditions: for Cre-mediated recombination in keratinocytes expressing Cre-ERM^Db: ear treatment 1 mg/day for 5 days, ear sections at day 12; for Cre-mediated recombination in Cre-ERM^Db-expressing keratinocytes of ear skin (distal) / Cre-mediated recombination in Cre-ERM^Db-expressing keratinocytes of tail treated skin: daily tail topical treatment 1 or 0.2 mg for 5 days
# T1 sequence (P03372 311-547 L346I/A350M/M388Q/G400V/G521S/Y526D limits assumed): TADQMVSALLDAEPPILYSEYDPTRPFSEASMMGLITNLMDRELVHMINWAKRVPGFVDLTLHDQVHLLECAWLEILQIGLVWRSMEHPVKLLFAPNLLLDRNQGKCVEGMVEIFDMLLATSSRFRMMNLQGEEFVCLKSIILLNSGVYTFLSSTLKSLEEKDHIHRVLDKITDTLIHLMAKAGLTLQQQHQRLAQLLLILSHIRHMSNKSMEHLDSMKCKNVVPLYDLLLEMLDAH
# Procedure: For topical application, DHB, DHBD, HMB or MB dissolved in ethanol at 100 mg/ml was diluted two times in acetone, and 20 μl (1 mg) was daily applied on one cm^2 ear or tail skin for 5 days. For intraperitoneal and gavage administration, compounds dissolved in ethanol were diluted at 10 mg/ml in sunflower oil, and 100 μl were i.p. injected or orally administered to mice.
# β-Galactosidase histochemistry was performed on 10 μm-thick frozen section, stained with X-Gal (5-bromo-4-chloro-3-indolyl β-D-galactoside), as described (Brocard et al., 1997).
# Cre-ERM^Db [2] = target: T1, Cre-ERM^Db
# Procedure: (§1) F9^+/(LNL) cells (Clifford et al., 1996; Metzger et al., 1995) were coelectroporated with 5 μg pCre-ER expression vectors and 1 μg pPGK-hyg, that had been digested with AseI and PvuII, respectively. Hygromycin-resistant clones were obtained as described (Metzger et al., 1995). To analyse Cre-mediated DNA excision, such clones were plated in 24-well plates at a density of 6×10^3 cells, and grown in the presence of 100 nM all-trans retinoic acid (RA). […] PCR amplification of a segment of the RXRα WT allele (+) and recombined RXRα (Δ) allele from their genomic DNA was carried out using the primers 5′-[…]-3′ (SEQ ID No. 1) and 5′-[…]-3′ (SEQ ID No. 2) (+, ˜300 bp; Δ, ˜350 bp), as described (Feil et al., 1997).
# Cre-ERM^Da [3] = target: T2, Cre-ERM^Da (Homo sapiens, UniProt P03372, A350M/G521S/L346I/M388Q/Y526D); assay: PCR detection of Cre-mediated floxed DNA excision in Cre-ERM^Da/RXRα^+/(LNL) F9 cells; assay type: cell-based, mouse; design: a fusion protein between Cre and the L346I, A350M, M388Q, G521S, Y526D mutant ERα LBD; Cre recombinase (bacteriophage P1); expressed in transfected cells; conditions: 3 μM DHB, 3 days
# T2 sequence (P03372 311-547 L346I/A350M/M388Q/G521S/Y526D limits assumed): T1 sequence (P03372 311-547 L346I/A350M/M388Q/G400V/G521S/Y526D limits assumed) with V90G
# Procedure: as §1
# Cre-ERM^Dc [4] = target: T3, Cre-ERM^Dc (Homo sapiens, UniProt P03372, A350M/G442Y/G521S/L346I/L466S/M388Q/Y459N/Y526D); assay: Immunocytochemistry of Cre-ERM^Dc (translocation from cytoplasm to nucleus); assay type: cell-based; design: Cre recombinase (bacteriophage P1); expressed in transfected cells; host or cells: Cos-1 cells (transient, pCre-ERM^Dc) for A3; conditions: data not shown
# T3 sequence (P03372 311-547 L346I/A350M/M388Q/G442Y/Y459N/L466S/G521S/Y526D limits assumed): T1 sequence (P03372 311-547 L346I/A350M/M388Q/G400V/G521S/Y526D limits assumed) with V90G, G132Y, Y149N, L156S
# Procedure: (§2) Cos-1 cells grown on Lab-TekII chamber slides (Nalge Nunc International) were transfected with 0.25 μg pCre-ERM expression vectors with Fugene, according to the manufacturer's instruction and treated with vehicle (ethanol) or 3 μM DHB for 24 hrs.
# [5] = Plasma levels after i.p. administration; assay type: in vivo, mice
# Procedure: For intraperitoneal and gavage administration, compounds dissolved in ethanol were diluted at 10 mg/ml in sunflower oil, and 100 μl were i.p. injected or orally administered to mice.
# Cre-ERM^Db [6] = target: T1, Cre-ERM^Db; assay: Immunocytochemistry of pCre-ERM^Db-transfected Cos-1 cells (nuclear translocation); assay type: cell-based, monkey; design: Cre recombinase (bacteriophage P1); expressed in transfected cells; host or cells: Cos-1 cells (transient, pCre-ERM^Db) for A2; conditions: 3 μM DHB for 24 hrs
# Procedure: as §2
# [7] = Blood hematology and plasma biochemical profile at D19; assay type: in vivo, mice; design: Bilirubin / Uric acid / Iron: unit not given here; conditions: for ALAT / ALP / ASAT / Albumin / Bilirubin / Cholesterol / Glucose / HCT, hematocrit / HGB, hemoglobin / Iron / K / MCH, mean corpuscular hemoglobin / MCHC, mean corpuscular hemoglobin concentration / MCV, mean corpuscular volume / Magnesium / Na / Phosphorus / Total protein / Triglycerides / Uric acid: 1 mg daily ip D1 to D5, means +/− SD, n = 3
# Cre-ERM^Da [8] = target: T2, Cre-ERM^Da; assay: Immunocytochemistry of pCre-ERM^Da-transfected Cos-1 cells (nuclear translocation); assay type: cell-based, African green monkey; design: a fusion protein between Cre and the L346I, A350M, M388Q, G521S, Y526D mutant ERα LBD; Cre recombinase (bacteriophage P1); expressed in transfected cells; host or cells: Cos-1 cells (transient, pCre-ERM^Da) for A1; conditions: 3 μM DHB for 24 hrs
# Procedure: as §2
# Cre-ERM^Dc [9] = target: T3, Cre-ERM^Dc; assay: PCR detection of Cre-mediated floxed DNA excision in Cre-ERM^Dc/RXRα^+/(LNL) F9 cells; assay type: cell-based; design: Cre recombinase (bacteriophage P1); expressed in transfected cells; conditions: F9 clone; one of 9 active clones
# Procedure: as §1
# [10] = Liver histology of treated mice; assay type: in vivo; conditions: DHB-treated mice
compound,measurement,setting,value
"4,4′-methoxybenzyl [MB]",Cre-mediated recombination in keratinocytes expressing Cre-ERM^Db,Cre-ERM^Db [1],efficiently induced
4-hydroxytamoxifen [OHT],Cre-ERM^Db recombinase activity,Cre-ERM^Db [2],neither E2 nor OHT induced any recombinase activity
"O=C(C(=O)c1ccc(O)cc1)c1ccc(O)cc1 [DHB, 4,4′-dihydroxybenzil]",Cre-ERM^Da recombinase activity,Cre-ERM^Da [3],induced Cre-ERM^Da recombinase activity
same,translocation of Cre-ERM^Dc from the cytoplasm to the nucleus,Cre-ERM^Dc [4],induced translocation
same,in vivo clearance,[5]; 1 mg i.p.,high
same,plasma levels,"[5]; 1 mg i.p., 22 hours after the two-hour sample",undetectable
same,concentration at 2 h,"[5]; mouse, plasma, ip, two hours after 1 mg i.p.",550 ng/mL
same,Cre-ERM^Db nuclear translocation,Cre-ERM^Db [6],induced its nuclear translocation
same,blood hematology and plasma biochemical profiles versus vehicle,[7]; 1 mg daily ip D1 to D5,did not reveal major difference
same,ALAT,[7]; female mice,27.7 +/− 2.9 U/l
same,ALP,[7]; female mice,137.0 +/− 14.1 U/l
same,ASAT,[7]; female mice,143.3 +/− 91.3 U/l
same,Albumin,[7]; female mice,28.7 ± 0.6 g/L
same,Bilirubin,[7]; female mice,1.3 +/− 0.4
same,Cholesterol,[7]; female mice,1.8 ± 0.1 mmol/L
same,Glucose,[7]; female mice,18.7 ± 3.5 mmol/L
same,"HCT, hematocrit",[7]; female mice,38.9 +/− 2.3%
same,"HGB, hemoglobin",[7]; female mice,13.3 ± 0.8 g/dL
same,Iron,[7]; female mice,25.6 +/− 3.9
same,K,[7]; female mice,5.8 ± 0.5 mmol/L
same,"MCH, mean corpuscular hemoglobin",[7]; female mice,16.1 ± 0.2 pg
same,"MCHC, mean corpuscular hemoglobin concentration",[7]; female mice,34.2 ± 0.2 g/dL
same,"MCV, mean corpuscular volume",[7]; female mice,47.2 ± 0.9 fL
same,Magnesium,[7]; female mice,1.5 ± 0.1 mmol/L
same,Na,[7]; female mice,152 ± 1.0 mmol/L
same,Phosphorus,[7]; female mice,3.2 ± 0.1 mmol/L
same,Total protein,[7]; female mice,48 ± 2.6 g/L
same,Triglycerides,[7]; female mice,0.6 ± 0.1 mmol/L
same,Uric acid,[7]; female mice,193.0 +/− 58.4
same,ALAT,[7]; male mice,34.7 +/− 17.5 U/l
same,ALP,[7]; male mice,114.3 +/− 8.1 U/l
same,ASAT,[7]; male mice,194 +/− 45.5 U/l
same,Albumin,[7]; male mice,27.3 ± 3.5 g/L
same,Bilirubin,[7]; male mice,2.0 +/− 0.3
same,Cholesterol,[7]; male mice,2.2 ± 0.2 mmol/L
same,Glucose,[7]; male mice,21.4 ± 7.2 mmol/L
same,"HCT, hematocrit",[7]; male mice,40.0 +/− 3.7%
same,"HGB, hemoglobin",[7]; male mice,14.0 ± 1.3 g/dL
same,Iron,[7]; male mice,24.9 +/− 1.4
same,K,[7]; male mice,5.9 mmol/L
same,"MCH, mean corpuscular hemoglobin",[7]; male mice,16.0 ± 0.2 pg
same,"MCHC, mean corpuscular hemoglobin concentration",[7]; male mice,34.9 ± 0.1 g/dL
same,"MCV, mean corpuscular volume",[7]; male mice,45.8 ± 0.5 fL
same,Magnesium,[7]; male mice,1.2 ± 0.2 mmol/L
same,Na,[7]; male mice,149.7 ± 6.1 mmol/L
same,Phosphorus,[7]; male mice,3.6 ± 0.6 mmol/L
same,Total protein,[7]; male mice,48.3 ± 7.1 g/L
same,Triglycerides,[7]; male mice,0.8 ± 0.2 mmol/L
same,Uric acid,[7]; male mice,235.7 +/− 132.5
same,Cre-ERM^Da protein nuclear translocation,Cre-ERM^Da [8],induced Cre-ERM^Da protein nuclear translocation
same,Cre-ERM^Dc Cre-mediated recombinase activity,Cre-ERM^Dc [9],strictly DHB-dependent
same,histological defects in liver,[10],no histological defects
same,β-galactosidase expression in epidermal keratinocytes,"Cre-ERM^Db [1]; 1 mg topically to one ear D1 to D5, treated ear sampled at D12","most, if not all epidermal keratinocytes from the treated ear expressed β-galactosidase"
same,Cre-mediated recombination in Cre-ERM^Db-expressing keratinocytes of ear skin (distal),Cre-ERM^Db [1],induced efficient Cre-mediated recombination
same,Cre-mediated recombination in Cre-ERM^Db-expressing keratinocytes of tail treated skin,Cre-ERM^Db [1],induced efficient Cre-mediated recombination
same,Cre-mediated recombination in keratinocytes expressing Cre-ERM^Db,Cre-ERM^Db [1],efficiently induced
same,β-galactosidase expression in epidermal keratinocytes,Cre-ERM^Db [1]; gavage 2 mg/day for 5 days,induced
same,β-galactosidase expression in epidermal keratinocytes,Cre-ERM^Db [1]; intraperitoneal injection 1 mg/day for 5 days,induced
same,Cre-mediated floxed DNA excision (Cre-ERM^Db recombinase activity),"Cre-ERM^Db [2]; F9 clone, ligand 3 μM",efficiently induced Cre-mediated floxed DNA excision
"CC(C)(C)C(=O)Oc1ccc(C(=O)C(=O)c2ccc(OC(=O)C(C)(C)C)cc2)cc1 [DHBD, 4,4′-dihydroxylbenzyl dipivalate]",Cre-mediated recombination in Cre-ERM^Db-expressing keratinocytes of ear skin (distal),Cre-ERM^Db [1],induced efficient Cre-mediated recombination
same,Cre-mediated recombination in Cre-ERM^Db-expressing keratinocytes of tail treated skin,Cre-ERM^Db [1],induced efficient Cre-mediated recombination
"COc1ccc(C(=O)C(=O)c2ccc(O)cc2)cc1 [HMB, 4-hydroxy-4′-methoxybenzyl]",Cre-mediated recombination in keratinocytes expressing Cre-ERM^Db,Cre-ERM^Db [1],Induction of Cre-ERM^Db recombinase activity
